The source of these data is patent US20200163938A1, “PHARMACEUTICAL COMPOSITION COMPRISING IRON CHELATOR EXHIBITING ANTITUMOR ACTIVITY, ANTIBACTERIAL ACTIVITY AND/OR ANTIVIRUS ACTIVITY, AND HAVING REDUCED SIDE EFFECTS” (priority 2017, published 2020).

In series [1] the test system is C. albicans (ATCC10231; Candida albicans). The experiment in a line: Minimum growth inhibition concentration (MIC). In kind it is cell-based. The protocol:
(§1) The dilution series of the chelating agent of each test group was prepared according to a standard method, microbes were inoculated, and then 24 hours later, the microbial growth was confirmed, thereby determining the minimum growth inhibition concentration of the chelating agent of each test group. Microbes used herein were S. aureus (ATCC6538; Staphylococcus aureus), P. aeruginosa (ATCC9027; Pseudomonas aeruginosa) and C. albicans (ATCC10231; Candida albicans). Drugs used herein were oxacillin, vancomycin and deferasirox as positive controls.

Series [2] concerns P. aeruginosa (ATCC9027; Pseudomonas aeruginosa). The experiment in a line: Minimum growth inhibition concentration (MIC). Particulars: 24 hours; for MIC: Pseudomonas aeruginosa, ATCC9027. In kind it is cell-based. On the procedure:
as §1

Series [3] has as its system S. aureus (ATCC6538; Staphylococcus aureus). The experiment in a line: Minimum growth inhibition concentration (MIC). In kind it is cell-based. Particulars: for MIC S. aureus / MIC: 24 hours; for MIC: Staphylococcus aureus, ATCC6538. The protocol:
as §1

Series [4] deals with Human lung cancer cell line (A549) subcutaneous tumors. Description: In vivo antitumor effects, A549 subcutaneous tumors in nude mice. The protocol: Antitumor effects were confirmed using animal models. Specifically, nude mice (BALB/c nu/nu, 6 weeks old: Clea Japan Inc.) were provided. Human lung cancer cell line (A549) was adjusted at 3×10^6/mouse, and then mixed with Matrigel (BD Biosciences) at 1:1. The thus obtained mixture was administered to mice, thereby forming subcutaneous tumors. At 1 week after the formation of subcutaneous tumors, mice were divided into a negative control group (saline: 4 mice), a test group 9 administration group (test group 9: 3 mice), and a positive control group (deferasirox: 3 mice), and then subjected to oral administration. The dosage of deferasirox was 20 mg/kg/day (5 times/week administration) corresponding to that specified for humans in the package insert. Test group 9 was administered in the same dosage as that of deferasirox. Results were as depicted in FIGS. 4A and 4B.

The format of series [5] is in vivo. Details: NEFA: unit not given here. To be noted: for Body weight: rats. The protocol: To a negative control group (saline administration; n=6), the same amount of saline was administered. On day 14 after administration, determining life or death, measurement of body weight, physical items (respiration, body temperature, behavior, etc.) were observed. Moreover, blood samples were taken from each group, and the right kidneys and the livers were removed. Results were as depicted in FIG. 5A to 5C and Tables 4 to 9.

Series [6] deals with S. mutans (ATCC25175). The experiment in a line: Antibacterial activity, turbidity and ATP assay. In kind it is cell-based, Streptococcus mutans. To be noted: aerobic culture 37° C., 18 hours; FIGS. 6A, 6B. The protocol: First, the antibacterial activity of a dental caries-causing bacterium, S. mutans (ATCC25175) was examined. With the use of a liquid medium prepared by adding a yeast extract and the chelating agent of each test group to TSB medium, aerobic culture was performed at 37° C. for 18 hours, and then turbidity was found from optical density (OD570 or 595 nm). Cell activity was measured using an ATP assay kit (Kikkoman Corporation). Results were as depicted in FIGS. 6A and 6B.

The subject of series [7] is A. actinomycetemcomitans AaY4 (ATCC). Description: Antibacterial activity, turbidity and ATP assay. In kind it is cell-based, Aggregatibacter actinomycetemcomitans. To be noted: anaerobic culture 37° C., 18 hours; FIGS. 7A, 7B. The protocol: A bacterial strain of one of periodontopathic bacteria, A. actinomycetemcomitans, used herein was AaY4 (ATCC). With the use of a liquid medium prepared by adding a yeast extract, sodium bicarbonate and the chelating agent of each test group to TSB medium, anaerobic culture (Anaeropack-anaerobic) was performed at 37° C. for 18 hours. Turbidity was measured using absorbance (OD570 or 595 nm), and cell activity was measured using an ATP assay kit. Results were as depicted in FIGS. 7A and 7B.

Where [8] appears, read: rat blood, oral 200 mg/kg, day 14.
Setting [9] is: rat blood, oral 1000 mg/kg, day 14.
Where [10] appears, read: rat blood, oral 1000 mg/kg, day 14, 1000 mg/kg.

Values after ≈ are worked out from the molar mass of the structure shown. Values joined by “and” are separate entries in the source; they are usually repeats but may differ in a detail not shown here. Equal values may be shown once. Read-outs that look alike come from different tables or passages of the source. Where only a bound is given, the exact number is not on record here.

With `Cl.O=C(O)c1cc(CN[C@@H](Cc2c[nH]cn2)C(=O)O)ccc1O` [Test group 9], the “MIC C. albicans” value in series [1] (24 hours) was over 500 µg/mL. The “MIC P. aeruginosa” value in series [2] was over 500 µg/mL. Moreover, the “MIC S. aureus” value in series [3] is over 500 µg/mL. Also, the “in vivo antitumor effects” value in series [4] (A549 subcutaneous tumors, nude mice, oral 20 mg/kg/day (5 times/week), FIG. 4A) is “antitumor effects were exhibited to an extent almost equivalent to that in the positive control group”. For the same molecule, the body weight change entry in series [4] (mouse, in vivo, po, 20 mg/kg/day) is listed as “no significant change was observed in body weight”. Moreover, the “death during the experiment” value in series [4] (nude mice, oral 20 mg/kg/day (5 times/week)) is listed as “no mice died during the experiment”. In series [5] (setting [8]), this molecule returned an ALP of 695 IU/L, an ALT of 24 IU/L, an AST of 54 IU/L and a BUN of 22.8 mg/dL. Further, in series [5] (setting [8]), the CRE was determined as 0.37 mg/dL, the Ca is 11.1 mg/dL, the GLU was found to be 214 mg/dL and the K stood at 4.7 mEQ/L. In series [5] (setting [8]), this molecule showed an LD of 49 IU/L, an NEFA of 59, a Na of 146 mEQ/L and a T-Bil of 0.05 mg/dL. Moreover, the TP in series [5] (setting [8]) was determined as 5.5 g/dL. Moreover, in series [5] (setting [9]), the CRE is recorded as 0.36 mg/dL and the T-Bil amounted to 0.06 mg/dL. Also, in series [5] (setting [10]), the ALP was 563 IU/L and 502 IU/L; the ALT was 24 IU/L and 25 IU/L; the AST is 59 IU/L and 58 IU/L; the BUN is 22.5 mg/dL and 24.4 mg/dL. Besides, in series [5] (setting [10]), the Ca was 10.0 mg/dL and 11.2 mg/dL; the GLU is 195 mg/dL and 301 mg/dL; the K is 3.6 mEQ/L and 4.8 mEQ/L; the LD is 78 IU/L and 70 IU/L. For the same molecule, in series [5] (setting [10]), the Na was 143 mEQ/L and 144 mEQ/L; the TP was 5.4 g/dL and 5.9 g/dL. In series [5] (oral 200 mg/kg), this molecule returned a Body weight of 190.97 g. In addition, the Body weight in series [5] (oral 1000 mg/kg, 1000 mg/kg) was 177.11 g and 183.15 g.
In general, MIC refers to the lowest concentration found to suppress growth. Regarding `Cc1onc(-c2ccccc2)c1C(=O)N[C@@H]1C(=O)N2[C@@H]1SC(C)(C)[C@@H]2C(=O)O` [Oxacillin, oxacillin, reference compound], the minimum inhibitory concentration (MIC) was 1020 µg/mL (≈ 2550 µM) in series [2] and 0.25 µg/mL (≈ 0.623 µM) in series [3].
Consider `O=C(O)c1ccc(-n2nc(-c3ccccc3O)nc2-c2ccccc2O)cc1` [Deferasirox, deferasirox, reference compound], for which the MIC in series [1] (Candida albicans, ATCC10231, 24 hours) was over 250 µg/mL; in series [2], over 250 µg/mL; in series [3], 250 µg/mL (≈ 670 µM).
As for `Cl.O=C(O)[C@H](Cc1c[nH]cn1)NCc1ccc(O)c(O)c1` [Test group 8], the “MIC C. albicans” value in series [1] (24 hours) was over 800 µg/mL. In addition, in series [2], the “MIC P. aeruginosa” value was over 800 µg/mL. In addition, in series [3], the “MIC S. aureus” value worked out at 800 µg/mL. Also, in series [3] (from Table 10), the “antimicrobial effects on S. aureus (in words)” value is “antimicrobial effects”.
Regarding `CN[C@H](CC(C)C)C(=O)N[C@H]1C(=O)N[C@@H](CC(N)=O)C(=O)N[C@H]2C(=O)N[C@H]3C(=O)N[C@H](C(=O)N[C@H](C(=O)O)c4cc(O)cc(O)c4-c4cc3ccc4O)[C@H](O)c3ccc(c(Cl)c3)Oc3cc2cc(c3O[C@@H]2O[C@H](CO)[C@@H](O)[C@H](O)[C@H]2O[C@H]2C[C@](C)(N)[C@H](O)[C@H](C)O2)Oc2ccc(cc2Cl)[C@H]1O` [Vancomycin, vancomycin, reference compound], the MIC was over 50 µg/mL in series [2] and 1.6 µg/mL (≈ 1.1 µM) in series [3].
Take `Cl.OCC1OC(O)C(NCc2ccc(O)c(O)c2)C(O)C1O` (centres unmarked) [Test group 5]: the “antimicrobial effects on S. mutans (turbidity, ATP activity)” value in series [6] is “strong antimicrobial effects”. The “antimicrobial effects on A. actinomycetemcomitans (turbidity, ATP activity)” value in series [7] is on record as “strong antimicrobial effects”. In addition, in series [1] (24 hours), the “MIC C. albicans” value amounted to 800 µg/mL. In series [1] (from Table 10), the “antimicrobial effects on C. albicans (in words)” value is “exhibited antimicrobial effects”. Also, the “MIC P. aeruginosa” value in series [2] is over 800 µg/mL. The “MIC S. aureus” value in series [3] is 800 µg/mL.
`Cl.O=C(O)c1cc(CNC2C(O)OC(CO)C(O)C2O)ccc1O` (centres unmarked) [Test group 7]: the “MIC C. albicans” value in series [1] (24 hours) is over 800 µg/mL. Further, the “MIC P. aeruginosa” value in series [2] is over 800 µg/mL. Besides, the “MIC S. aureus” value in series [3] was over 800 µg/mL.
